Experimental data taken from patent publication US20240049713A1, “METHOD FOR CONTROLLING HERBICIDE-RESISTANT WEEDS” (SUMITOMO CHEMICAL COMPANY, LIMITED, priority 2020, published 2024).
Read-outs that look alike come from different tables or passages of the source.

Columns and labels:
[1] = test system: PPO inhibitor-resistant weeds; experiment: plastic pot tests as Examples 1 to 72 and variants (Examples 73 to 3456)
Description: On the same day, compound X is applied to the surface of soil so that the application rate of the compound X is 10, 20, 40 or 80 g/ha and the spray volume is 200 L/ha. The plastic pot is then placed in a greenhouse, and at 7 days after the application, soybeans are seeded, and further at 14 days after seeding the soybeans, the effect on the weeds and crop injuries on the soybeans are investigated.
On the same day, compound X is applied to the surface of soil so that the application rate of the compound X is 10, 20, 40 or 80 g/ha and the spray volume is 200 L/ha. The soybeans are then cultivated in a greenhouse, and at 21 days after seeding, the effect on the weeds and crop injuries on the soybeans are investigated.
The soybeans are then cultivated in a greenhouse, and at 21 days after seeding, compound X is foliar-treated so that the application rate of the compound X is 10, 20, 40 or 80 g/ha and the spray liquid amount is 200 L/ha. Further, the soybeans are cultivated in the greenhouse, and at 14 days after the application of compound X, the effect on the weeds and crop injuries on the soybeans are investigated.

[2] = test system: waterhemp (Amaranthus tuberculatus=Amaranthus rudis=Amaranthus tamariscinus) having Gly210 deficiency in PPO2; format: in vivo; details: rating 0 to 100, sprayed at plant height 20 cm, 200 L/ha, 1% (w/v) Agri-Dex, evaluated after 14 days in greenhouse
[3] = applications as in Examples 1 to 72, compound X replaced, 10 to 80 g/ha
[4] = as Examples 1 to 216, RoundupPowerMax 32 fluid ounce/acre and XtendiMax 1 pint/acre further added

| Compound | effect on the weeds [1, 3] | effect on the weeds [1, 4] | herbicidal effect ([2]; 20 g/ha) | herbicidal effect ([2]; 40 g/ha) |
| --- | --- | --- | --- | --- |
| COC(=O)COC(=O)C1(Oc2cc(-n3c(=O)cc(C(F)(F)F)n(C)c3=O)c(F)cc2Cl)CC1 [Compound Y] | effective control effect | effective control effect | – | – |
| COC(=O)CCNC(=O)C(C)Sc1cc(-n2c(=O)cc(C(F)(F)F)n(C)c2=O)c(F)cc1Cl (stereo not drawn) [Tiafenacil, tiafenacil, reference compound] | – | – | 50 | 70 |
| CCOC(=O)COC(=O)C1(Oc2cc(-n3c(=O)cc(C(F)(F)F)n(C)c3=O)c(F)cc2Cl)CC1 [Compound X] | – | effective control effect | 99 | 99 |
| Cn1c(C(F)(F)F)cc(=O)n(-c2cc(OC3(C(=O)OCC(=O)O)CC3)c(Cl)cc2F)c1=O [Compound Z] | effective control effect | effective control effect | – | – |
